Measured values reported in patent US6531462B2, “Medicament for treating obesity and improving lipid metabolism” (priority 1997, dated 2003).
“Also recorded” adds a separate entry of the source. Marks after values point to notes of the source that are not given here.

Columns and labels:
[1] = Example 1: serum lipids and serum metabolites of mice fed feed supplemented with 0.5% test compound; format: in vivo; conditions: for Serum cholesterol / Serum neutral fats: ratio relative to the non-treated control group
Description: (§1) 5-Sitosten-3-one was prepared according to the method of Parish (Parish, E. J., et al., Synthetic Communication, 22, pp.2839-2847, 1992) by using β-sitosterol (Tokyo Chemical Industry Co., Ltd.) as a starting material and used in the experiments. The content ratio of 24-ethyl and 24-methyl compounds in the synthesized product was 6.5:3.5. As experimental animals, six CDF1 male mice (5-week old, Charles River Japan Inc.) were used in each experimental group. The animals were fed in aluminum cages for mice, and allowed to feed and water ad libitum. The animals were fed for 2 weeks under feeding conditions at a temperature of 24±1° C. and a relative humidity of 55±5%, where light and darkness were controlled to change every 12 hours, and each cage and floor mat (white flakes) were exchanged twice a week.
(§2) Modified AIN (Oriental Yeast Co.) was used as basic feed and mixed with 0.5% 5-sitosten-3-one to prepare test feeds. A feed used as a positive control was prepared by adding 0.5% of 4-cholesten-3-one (Japanese Patent Unexamined Publication No. Hei 5-170651/1993) to the basic feed. Non-treated mice as a control were fed solely with the basic feed. The basic feed was composed of 22.8% crude protein, 54.1% carbohydrates, 6.0% lipids, 4.9% fibers, 2.9% ash, and 8.7% water, and its calorie was 1,523 kJ. The feed was stored at 4° C. after preparation, and a fresh feed was supplied every day.
(§3) The animals were weighed at given intervals of time, and the average values and standard errors of the experimental groups were determined. In addition, feed consumptions were measured at given intervals of time and daily averages per mouse were determined. The animals were observed every day. After the end of the feeding, the animals were anesthetized to death with carbon dioxide gas, and bloods were collected from the vena cava to obtain serums. The animals were autopsied, and the brains, lungs, hearts, livers, spleens, kidneys, testis, adrenals and intraperitoneal fat were examined by the naked eye and weighed. As to serum lipid, neutral fats were measured by using a clinical test kit based on the enzyme method (Triglyceride-E Test, Wako Pure Chemicals Industries Co., Ltd.), and total cholesterol and cholestanol were measured by the method of Kasama (T. Kasama, et al., J. Chromatogr., 400, 241, 1987) with modifications, where the amount of benzoyl chloride was increased by 10 times, the reaction time was doubled, and the measurement was performed by using a high performance liquid chromatography system. Significant differences were determined by t-test for body weights and serum lipids on the basis of the non-treated control mice.

[2] = Example 1: general conditions and autopsical finding; format: in vivo, CDF1 male mice; conditions: 0.5% in feed, 2 weeks
Description: as §1, §2, §3

[3] = Example 1: body weight, body fat and feed intake of mice fed feed supplemented with 0.5% test compound; format: in vivo, CDF1 male mice; conditions: ratio relative to the non-treated control group, CDF1 mice
Description: as §1, §2, §3

[4] = Example 4: serum lipid concentration of mice fed 0.5% test compound for 14 days; format: in vivo, CDF1 male mice; conditions: 0.5% in feed; for Total cholesterol / Triglyceride: mean (n=6) ± standard error
Description: (§4) 5-Campesten-3-one was prepared from campesterol (>97%, Tama Biochemical Industry, Ltd.). 4-Sitosten-3,6-dione was prepared from β-sitosterol (>65%, Tokyo Chemical Industry Co., Ltd.) and obtained as a mixture of 24-ethyl compound and 24-methyl compound (2:1). 5-Stigmasten-3-one was prepared from stigmasterol (>94%, Tokyo Chemical Industry, Co., Ltd.). As experimental animals, six CDF1 male mice (5-week old, Charles River Japan Inc.) were used in each experimental group. Modified AIN (Oriental Yeast Co.) was used as basic feed and mixed with 0.5% of each test compound to prepare test feeds. The animals were allowed to feed with the test food ad libitum for 14 days. Measurements of body weights and observations of general conditions of the animals were carried out twice a week, and the animals were subjected to autopsy and their bloods were collected. Serum lipid analysis was conducted by using a clinical test kit based on the enzymatic method (Wako Pure Chemicals Industries Co., Ltd.). Significances of the resulting values were examined by the one-way analysis of variance with pairwise comparison (ANOVA) according to the Bonferroni method. Other conditions were the same as those described in Example 1.

[5] = Example 4: body weight and body fat of mice fed 0.5% test compound for 14 days; format: in vivo, CDF1 male mice; conditions: 0.5% in feed; for Intraperitoneal fat: mean (n=6) ± standard error; for Decrease of body fat: versus non-treated mice
Description: as §4

[6] = Example 2: body weight, feed intake, feed efficiency and intraperitoneal fat of mice fed 0.5% test compound; format: in vivo, CDF1 male mice; conditions: 0.5% in feed; for Feed efficiency (body weight gain/feed intake): 14 days; for Intraperitoneal fat: mean (n=6) ± standard error; for Body weight gain: total for 14 days; for Decrease of intraperitoneal fat: versus control
Source text: (§5) As 24-alkylcholesten-3-ones, (1) 4-sitosten-3-one, (2) 6α-hydroxy-4-sitosten-3-one, and (3) 6-hydroxy-4-sitosten-3-one (α:β=2.6:1) were synthesized by using β-sitosterol (Tokyo Chemical Industries Co., Ltd.). The content ratio of 24-ethyl and 24-methyl compounds in the synthesized product was 6.5:3.5. As experimental animals, six CDF1 male mice (5-week old, Charles River Japan Inc.) were used in each experimental group. A purified feed (Modified AIN, Oriental Yeast Co.) was used as a basic feed and mixed with 0.5% test compounds to prepare test feeds. The animals were allowed to feed and water ad libitum. The animals were weighed and observed to examine general conditions twice a week. The animals were subjected to autopsy after the end of the feeding, and their bloods were collected. Lipid concentrations in the separated serums were measured by using a clinical test kit based on the enzyme method (Wako Pure Chemicals Industries Co., Ltd.). Significances of the resulting experimental values were examined by the variance analysis. The other experimental conditions were the same as in Example 1.

[7] = Example 2: serum (plasma) lipid concentrations of mice fed 0.5% test compound; format: in vivo, CDF1 male mice; conditions: 0.5% in feed; for Free fatty acid / HDL-cholesterol / Phospholipid / Total cholesterol / Triglyceride: mean (n=6) ± standard error
Source text: as §5

[8] = metabolite of the test compound detected in serum, CDF1 mice
[9] = male, CDF1, mouse, in vivo, 2 weeks

## CC(C)CCC[C@@H](C)[C@H]1CC[C@H]2[C@@H]3CCC4=CC(=O)CC[C@]4(C)[C@H]3CC[C@]12C [4-Cholesten-3-one, 4-cholesten-3-one]
[1]; 0.5% in feed, 2 weeks, n=6
  Neutral fats (serum), mean ± standard error: 197.7 ± 28.1 mg/dL
  Total cholesterol (serum), mean ± standard error: 99.2 ± 5.8 mg/dL
[1]; [8]
  Serum metabolite: Cholestanol
[1]; metabolite of the test compound detected in serum, CDF1 mice, listed as 4-cholesten-3-one
  Serum metabolite: cholestanol
[1]; CDF1 mice
  Serum cholesterol: 62%
  Serum neutral fats: 54%
[2]
  Spleens at autopsy: enlargements
[3]
  Body weight gain: 72^a %
  Intraperitoneal fat: 74%

## CC(C)CCC[C@@H](C)[C@H]1CC[C@H]2[C@@H]3CC(=O)C4=CC(=O)CC[C@]4(C)[C@H]3CC[C@]12C [4-Cholestene-3,6-dione]
[1]; [9]
  Serum metabolite: 0
[1]; CDF1 mice
  Serum cholesterol: 60%
  Serum neutral fats: 36%
[3]
  Body weight gain: −62%
  Intraperitoneal fat: 23%

## CC[C@H](CC[C@@H](C)[C@H]1CC[C@H]2[C@@H]3CC(=O)C4=CC(=O)CC[C@]4(C)[C@H]3CC[C@]12C)C(C)C [4-Sitosten-3,6-dione]
[4]
  Decrease of serum total cholesterol concentration: ~18%
  Decrease of serum triglyceride concentration: ~66%
  Total cholesterol: 156.3 ± 6.4 mg/dL
  Triglyceride: 85.8 ± 9.2 mg/dL
[5]
  Effect on the increase of body weight (FIG. 6): Significant inhibitory effects
  Intraperitoneal fat: 472.7 ± 37.7 mg
  Decrease of body fat: ~40%

## CC[C@H](CC[C@@H](C)[C@H]1CC[C@H]2[C@@H]3CCC4=CC(=O)CC[C@]4(C)[C@H]3CC[C@]12C)C(C)C [4-Sitosten-3-one, 4-sitosten-3-one]
[6]
  Feed efficiency (change): only slight changes
  Suppression of body weight (FIG. 3): no significant suppression
  Feed efficiency (body weight gain/feed intake): 0.087
  Intraperitoneal fat: 841.5 ± 69.0 mg
  Body weight gain: 3.71 g/mouse
  Decrease of intraperitoneal fat: not signilficant
[7]
  Free fatty acid: 0.92 ± 0.03 mEq/dl
  HDL-cholesterol: 42.4 ± 6.36 mg/dL
  Phospholipid: 271.0 ± 9.5 mg/dL
  Total cholesterol: 151.4 ± 5.7 mg/dL
  Triglyceride: 130.9 ± 4.9 mg/dL

## CC(C)CCC[C@@H](C)[C@H]1CC[C@H]2[C@@H]3CC[C@@H]4CC(=O)CC[C@]4(C)[C@H]3CC[C@]12C [5 β-Cholestan-3-one, 5β-cholestan-3-one]
[1]; [8]
  Serum metabolite: Cholestanol
[1]; metabolite of the test compound detected in serum, CDF1 mice, listed as 5β-cholestan-3-one
  Serum metabolite: cholestanol or coprostanol
[1]; CDF1 mice
  Serum cholesterol: 75%
  Serum neutral fats: 70%
[3]
  Body weight gain: 51%
  Intraperitoneal fat: 71%

## CC(C)[C@H](C)CC[C@@H](C)[C@H]1CC[C@H]2[C@@H]3CC=C4CC(=O)CC[C@]4(C)[C@H]3CC[C@]12C [5-Campesten-3-one, 5-campesten-3-one (24-methylcholest-5-en-3-one)]
[4]
  Decrease of serum total cholesterol concentration: about 34%
  Decrease of serum triglyceride concentration: about 45%
  Total cholesterol: 125.8 ± 4.0 mg/dL
  Triglyceride: 138.9 ± 18.7 mg/dL
[5]
  Effect on the increase of body weight (FIG. 6): Significant inhibitory effects; also recorded: remarkably suppressed
  Intraperitoneal fat: 86.4 ± 19.9 mg
  Decrease of body fat: about 90%

## CC(C)CCC[C@@H](C)[C@H]1CC[C@H]2[C@@H]3CC=C4CC(=O)CC[C@]4(C)[C@H]3CC[C@]12C [5-Cholesten-3-one]
[1]; [9]
  Serum metabolite: 0
[1]; CDF1 mice
  Serum cholesterol: 68%
  Serum neutral fats: 30%
[3]
  Body weight gain: −16%
  Intraperitoneal fat: 37%

## CC[C@H](CC[C@@H](C)[C@H]1CC[C@H]2[C@@H]3CC=C4CC(=O)CC[C@]4(C)[C@H]3CC[C@]12C)C(C)C [5-Stigmasten-3-one]
[4]
  Decrease of serum total cholesterol concentration: ~49%
  Decrease of serum triglyceride concentration: ~68%
  Total cholesterol: 97.9 ± 3.4 mg/dL
  Triglyceride: 82.0 ± 6.7 mg/dL
[5]
  Intraperitoneal fat: 745.7 ± 46.7 mg

## CC(C)CCC[C@@H](C)[C@H]1CC[C@H]2[C@@H]3C[C@@H](Br)C4=CC(=O)CC[C@]4(C)[C@H]3CC[C@]12C [6 β-Bromo-4-cholesten-3-one, 6β-bromo-4-cholesten-3-one]
[1]; CDF1 mice
  Serum cholesterol: 98%
  Serum neutral fats: 89%
[3]
  Body weight gain: 48%
  Intraperitoneal fat: 62%

## CC(C)CCC[C@@H](C)[C@H]1CC[C@H]2[C@@H]3CC(O)C4=CC(=O)CC[C@]4(C)[C@H]3CC[C@]12C (some centres unmarked) [6-Hydroxy-4-cholesten-3-one]
[1]; [9]
  Serum metabolite: 0
[1]; CDF1 mice
  Serum cholesterol: 80%
  Serum neutral fats: 47%
[3]
  Body weight gain: 50%
  Intraperitoneal fat: 63%

## CC[C@H](CC[C@@H](C)[C@H]1CC[C@H]2[C@@H]3CC(O)C4=CC(=O)CC[C@]4(C)[C@H]3CC[C@]12C)C(C)C (stereo partly drawn) [6-Hydroxy-4-sitosten-3-one (α:β = 2.6:1), 6-hydroxy-4-sitosten-3-one (α:β=2.6:1)]
[6]
  Feed efficiency (change): remarkable decrease
  Suppression of body weight (FIG. 3): potent suppressing effects
  Feed efficiency (body weight gain/feed intake): 0.044
  Intraperitoneal fat: 481.8 ± 51.9 mg
  Body weight gain: 1.82 g/mouse
  Decrease of intraperitoneal fat: 50%
[7]
  Total cholesterol and phospholipid concentrations in plasma: significantly decreased
  Free fatty acid: 0.77 ± 0.03 mEq/dl
  HDL-cholesterol: 45.0 ± 5.8 mg/dL
  Phospholipid: 211.9 ± 5.1 mg/dL
  Total cholesterol: 133.3 ± 5.7 mg/dL
  Triglyceride: 76.5 ± 5.2 mg/dL

## CC[C@H](CC[C@@H](C)[C@H]1CC[C@H]2[C@@H]3C[C@H](O)C4=CC(=O)CC[C@]4(C)[C@H]3CC[C@]12C)C(C)C [6α-Hydroxy-4-sitosten-3-one, 6α-hydroxy-4-sitosten-3-one]
[6]
  Feed efficiency (change): remarkable decrease
  Suppression of body weight (FIG. 3): potent suppressing effects
  Feed efficiency (body weight gain/feed intake): 0.022
  Intraperitoneal fat: 369.8 ± 22.5 mg
  Body weight gain: 0.86 g/mouse
  Decrease of intraperitoneal fat: 60%
[7]
  Total cholesterol and phospholipid concentrations in plasma: significantly decreased
  Free fatty acid: 0.69 ± 0.04 mEq/dl
  HDL-cholesterol: 36.7 ± 4.7 mg/dL
  Phospholipid: 209.6 ± 7.8 mg/dL
  Total cholesterol: 142.5 ± 5.1 mg/dL
  Triglyceride: 66.8 ± 3.5 mg/dL

## CC(C)CCC[C@@H](C)[C@H]1CC[C@H]2[C@@H]3C=CC4=CC(=O)CC[C@]4(C)[C@H]3CC[C@]12C [Colesta-4,6-dien-3-one]
[1]; CDF1 mice
  Serum cholesterol: 63%
  Serum neutral fats: 60%
[3]
  Body weight gain: 59%
  Intraperitoneal fat: 69%
